The record followed here is patent US10308689B2, “Dengue virus (DV) polypeptide sequences, T cell epitopes and methods and uses thereof” (LA JOLLA INSTITUTE FOR ALLERGY AND IMMUNOLOGY, priority 2010, dated 2019).

In this experiment the test system is PBMC of healthy adult blood donors from Colombo, Sri Lanka. In words: Ex vivo IFNγ ELISPOT, HLA-matched PBMC of Sri Lankan blood donors. The following applies: for # donors responded: number of donors responding to the epitope. Also noted: Total Response per epitope: unit not given here. It counts as cell-based, human.
[1] abbreviates: restricting HLA allele and serotype as given.
Where [2] appears, read: total over responding donors, restricting HLA allele and serotype as given.
Where [3] appears, read: HLA allele, supertype and serotype.
[4] abbreviates: summed IFNγ ELISPOT response per epitope, HLA allele and serotype as given.

In the case of `CC[C@H](C)[C@H](NC(=O)[C@H](CO)NC(=O)[C@H](CCCCN)NC(=O)[C@H](CCCNC(=N)N)NC(=O)CNC(=O)[C@H](CO)NC(=O)[C@H](C)NC(=O)[C@@H](N)Cc1ccccc1)C(=O)N[C@H](C(=O)N[C@@H](CC(C)C)C(=O)O)[C@@H](C)O`, the “# donors responded” value under setting [1] came out at 1. Besides, under setting [2], the “Total Response per epitope” value amounted to 26.7.
`CC[C@H](C)[C@H](NC(=O)[C@H](C)NC(=O)CNC(=O)[C@@H](N)Cc1ccccc1)C(=O)N[C@@H](Cc1ccc(O)cc1)C(=O)NCC(=O)N[C@@H](C)C(=O)N[C@@H](C)C(=O)N[C@@H](Cc1ccccc1)C(=O)O`: under setting [1], the “# donors responded” value is recorded as 3. Under setting [2], the “Total Response per epitope” value was found to be 798.3.
The matching figures for `CC[C@H](C)[C@H](NC(=O)[C@@H]1CCCN1C(=O)[C@H](C)NC(=O)[C@H](CC(N)=O)NC(=O)[C@H](CO)NC(=O)[C@H](CCC(N)=O)NC(=O)[C@@H]1CCCN1C(=O)[C@@H](N)Cc1ccccc1)C(=O)N[C@@H](CCSC)C(=O)N[C@@H](CC(=O)O)C(=O)O`: 4 and 716.7.
The matching figures for `CC(C)C[C@H](NC(=O)[C@H](CO)NC(=O)[C@H](CC(N)=O)NC(=O)[C@H](CCC(=O)O)NC(=O)[C@H](CCCNC(=N)N)NC(=O)[C@H](CO)NC(=O)[C@@H](N)Cc1ccccc1)C(=O)N[C@@H](CO)C(=O)NCC(=O)N[C@H](C(=O)O)C(C)C`: 1 and 101.7.
For the compound `CC[C@H](C)[C@H](NC(=O)[C@H](C)NC(=O)[C@H](C)NC(=O)[C@H](CCSC)NC(=O)[C@@H](NC(=O)[C@@H](NC(=O)[C@@H](N)Cc1ccccc1)[C@@H](C)O)[C@@H](C)CC)C(=O)N[C@@H](CC(C)C)C(=O)N[C@@H](C)C(=O)N[C@@H](Cc1ccc(O)cc1)C(=O)O`, the “# donors responded” value under setting [1] is on record as 2. The “Total Response per epitope” value under setting [2] came out at 675.0.
On to `CC[C@H](C)[C@H](NC(=O)[C@H](C)NC(=O)[C@H](CC(C)C)NC(=O)[C@H](CS)NC(=O)[C@H](CC(C)C)NC(=O)[C@@H](NC(=O)CNC(=O)[C@H](CCSC)NC(=O)[C@@H](NC(=O)[C@@H](N)Cc1ccccc1)[C@@H](C)O)C(C)C)C(=O)O`, for which, under setting [1], the “# donors responded” value came out at 1. Besides, under setting [2], the “Total Response per epitope” value amounted to 58.3.
For `CSCC[C@H](NC(=O)[C@@H](NC(=O)[C@@H](N)Cc1ccccc1)[C@@H](C)O)C(=O)N[C@@H](CCCNC(=N)N)C(=O)N[C@@H](Cc1c[nH]cn1)C(=O)N[C@@H](CCCCN)C(=O)N[C@@H](CCCCN)C(=O)N[C@@H](C)C(=O)N[C@H](C(=O)N[C@@H](Cc1ccc(O)cc1)C(=O)O)[C@@H](C)O`, the “# donors responded” value under setting [1] is listed as 4. Moreover, the “T cell response [SFC]” value (per epitope, ex vivo IFNγ SFC/10^6 PBMC) is on record as 1723 SFC. The “# of responders” value (responding donors, HLA allele(s)) was determined as 4. The “Total Response per epitope” value under setting [2] was 1723.3.
In the case of `CC[C@H](C)[C@H](NC(=O)[C@@H]1CCCN1C(=O)[C@H](CCC(=O)O)NC(=O)[C@H](CCC(=O)O)NC(=O)[C@H](Cc1c[nH]cn1)NC(=O)CNC(=O)[C@@H]1CCCN1C(=O)CN)C(=O)N1CCC[C@H]1C(=O)N[C@@H](CCSC)C(=O)O`, under setting [1], the “# donors responded” value turned out to be 3. The “Total Response per epitope” value under setting [2] came out at 235.0.
In the case of `C[C@H](NC(=O)[C@H](CCCNC(=N)N)NC(=O)CNC(=O)CNC(=O)[C@H](C)NC(=O)[C@H](CCC(=O)O)NC(=O)[C@H](C)NC(=O)[C@@H](N)[C@@H](C)O)C(=O)N[C@@H](Cc1ccc(O)cc1)C(=O)O`, the “Total Response per epitope” value (IFNγ ELISPOT response summed over responding donors, per epitope) was 371.7. For the same compound, the “# donors responded” value (HLA-matched PBMC, proteome-wide screen) was found to be 4.
Regarding `CC[C@H](C)[C@H](NC(=O)[C@H](C)NC(=O)[C@H](C)NC(=O)[C@H](CCSC)NC(=O)[C@@H](NC(=O)[C@@H](N)[C@@H](C)O)[C@@H](C)CC)C(=O)N[C@@H](CC(C)C)C(=O)N[C@@H](C)C(=O)N[C@@H](Cc1ccc(O)cc1)C(=O)O`, the “# donors responded” value under setting [1] came out at 1. Further, the “Total Response per epitope” value under setting [2] came to 20.0.
As to `CC(C)[C@H](NC(=O)[C@H](CCCNC(=N)N)NC(=O)[C@H](CCC(N)=O)NC(=O)[C@H](CCC(N)=O)NC(=O)CNC(=O)[C@H](Cc1ccccc1)NC(=O)[C@@H]1CCCN1C(=O)[C@@H](N)[C@@H](C)O)C(=O)N[C@@H](Cc1ccccc1)C(=O)O`, the “# donors responded” value under setting [3] is given as 3. Also, under setting [4], the “Total Response per epitope” value stood at 438.3.
As to `CC[C@H](C)[C@H](NC(=O)[C@@H](NC(=O)[C@H](CC(=O)O)NC(=O)[C@H](CCSC)NC(=O)[C@@H](NC(=O)[C@H](C)NC(=O)CNC(=O)[C@H](CCCCN)NC(=O)[C@@H]1CCCN1C(=O)[C@@H](N)[C@@H](C)O)C(C)C)[C@@H](C)CC)C(=O)O`, under setting [3], the “# donors responded” value turned out to be 1. Further, the “Total Response per epitope” value under setting [4] came out at 105.0.
As for `CC(C)C[C@H](NC(=O)[C@H](CCC(N)=O)NC(=O)[C@H](CC(N)=O)NC(=O)[C@H](CC(=O)O)NC(=O)[C@H](CCC(N)=O)NC(=O)[C@@H]1CCCN1C(=O)[C@@H](N)[C@@H](C)O)C(=O)N[C@H](C(=O)N[C@@H](Cc1ccc(O)cc1)C(=O)O)[C@@H](C)O`, the “# donors responded” value under setting [3] is 1. For the same compound, under setting [4], the “Total Response per epitope” value was 75.0.
The matching figures for `CC[C@H](C)[C@H](NC(=O)[C@@H](NC(=O)[C@H](CC(=O)O)NC(=O)[C@H](CCSC)NC(=O)[C@@H](NC(=O)[C@@H](NC(=O)CNC(=O)[C@H](CCCNC(=N)N)NC(=O)[C@@H]1CCCN1C(=O)[C@@H](N)[C@@H](C)O)[C@@H](C)O)C(C)C)[C@@H](C)CC)C(=O)O`: 1 and 331.7.
The matching figures for `CC[C@H](C)[C@H](NC(=O)[C@H](C)NC(=O)[C@H](Cc1ccc(O)cc1)NC(=O)[C@H](Cc1c[nH]cn1)NC(=O)[C@@H](NC(=O)[C@@H](NC(=O)[C@H](CC(C)C)NC(=O)[C@H](CC(C)C)NC(=O)[C@H](CC(C)C)NC(=O)[C@@H](N)C(C)C)C(C)C)[C@@H](C)O)C(=O)O`: 1 and 40.0.
`CSCC[C@H](NC(=O)[C@H](CC(N)=O)NC(=O)[C@@H](NC(=O)[C@H](CO)NC(=O)[C@H](CO)NC(=O)[C@@H](N)C(C)C)C(C)C)C(=O)N[C@H](C(=O)N[C@@H](CO)C(=O)N[C@@H](CCCNC(=N)N)C(=O)N[C@@H](CC(C)C)C(=O)O)C(C)C`: the “# donors responded” value under setting [3] was found to be 1. The “Total Response per epitope” value under setting [4] came to 421.7.
The matching figures for `CC(C)C[C@H](NC(=O)[C@H](CCCNC(=N)N)NC(=O)[C@H](Cc1c[nH]cn1)NC(=O)[C@H](CC(=O)O)NC(=O)[C@H](CS)NC(=O)[C@H](CC(C)C)NC(=O)[C@H](CCC(N)=O)NC(=O)[C@@H](NC(=O)[C@H](Cc1ccc(O)cc1)NC(=O)[C@@H](N)C(C)C)[C@@H](C)O)C(=O)O`: 1 and 21.7.
For `C[C@H](NC(=O)[C@@H](N)Cc1c[nH]c2ccccc12)C(=O)N[C@@H](Cc1ccc(O)cc1)C(=O)N[C@@H](Cc1c[nH]cn1)C(=O)NCC(=O)N[C@@H](CO)C(=O)N[C@@H](Cc1ccc(O)cc1)C(=O)N[C@@H](CCC(=O)O)C(=O)N[C@H](C(=O)O)[C@@H](C)O`, the “# donors responded” value under setting [3] is 3. Also, the “Total Response per epitope” value under setting [4] was determined as 1220.0.
The corresponding values for `CC(C)C[C@H](NC(=O)CNC(=O)[C@H](C)NC(=O)CNC(=O)[C@H](C)NC(=O)[C@H](CC(C)C)NC(=O)[C@@H](N)Cc1ccc(O)cc1)C(=O)N[C@@H](C)C(=O)N[C@@H](Cc1ccccc1)C(=O)O` are 3 and 340.0.
